Test results: ChEMBL document CHEMBL1129641 (J Med Chem, 1996)

Tests used:
[1] = target: T1, Thromboxane A2 receptor (Homo sapiens) (UniProt P21731); assay: Binding affinity for human Platelet Thromboxane A2 / Prostaglandin (TP), by radioligand competition binding assays using [3H]-SQ 29548 as radioligand. PR = potency ratio relative to TMQ
T1 sequence (whole entry): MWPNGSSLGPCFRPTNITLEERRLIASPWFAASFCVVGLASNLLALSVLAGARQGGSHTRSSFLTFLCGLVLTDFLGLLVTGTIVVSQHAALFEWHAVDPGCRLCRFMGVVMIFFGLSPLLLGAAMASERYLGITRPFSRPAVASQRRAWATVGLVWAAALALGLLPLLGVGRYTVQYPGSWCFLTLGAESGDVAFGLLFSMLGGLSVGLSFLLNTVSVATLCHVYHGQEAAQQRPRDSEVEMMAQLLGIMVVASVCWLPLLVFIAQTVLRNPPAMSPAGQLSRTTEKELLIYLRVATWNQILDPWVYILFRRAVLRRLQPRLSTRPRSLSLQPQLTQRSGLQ

[2] = target: T2, Beta-2 adrenergic receptor (Homo sapiens, UniProt P07550); settings: CHO
Target sequence in this assay (P07550 whole entry, looked up): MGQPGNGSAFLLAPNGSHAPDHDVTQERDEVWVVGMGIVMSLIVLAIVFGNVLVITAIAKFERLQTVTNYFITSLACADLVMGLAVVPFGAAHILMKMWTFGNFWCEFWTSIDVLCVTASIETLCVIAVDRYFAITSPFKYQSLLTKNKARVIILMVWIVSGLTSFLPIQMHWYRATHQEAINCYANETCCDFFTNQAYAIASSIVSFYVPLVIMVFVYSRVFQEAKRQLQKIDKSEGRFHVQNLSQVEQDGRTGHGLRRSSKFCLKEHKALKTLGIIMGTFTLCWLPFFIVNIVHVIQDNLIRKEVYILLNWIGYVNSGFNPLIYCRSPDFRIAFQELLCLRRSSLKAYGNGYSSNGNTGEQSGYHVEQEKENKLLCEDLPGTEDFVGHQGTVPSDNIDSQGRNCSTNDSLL
Description: Binding affinity for human beta-2 Adrenoceptor (AR) expressed in CHO cells by radioligand competition binding assays using [125I]-iodocyanopindolol (ICYP); PR = potency ratio relative to TMQ

[3] = target: T2, Beta-2 adrenergic receptor; assay: Binding affinity for human Beta-2 adrenergic receptor expressed in CHO cells by radioligand competition binding assays using [125I]iodocyanopindolol (ICYP); type: cell-based
Target sequence in this assay (P07550 whole entry): as the sequence (P07550 whole entry, looked up) above

Thromboxane A2 receptor = target: T3, Thromboxane A2 receptor (Homo sapiens, UniProt P21731); assay: Binding affinity for human Platelet Thromboxane A2 / Prostaglandin (TP), by radioligand competition binding assays using [3H]-SQ 29548 as radioligand
T3 sequence (P21731 whole entry): T1 sequence (whole entry)

Compound | PR [1] | PR [2] | Ki [3] [nM] | Ki (Thromboxane A2 receptor) [nM]
Oc1cc2c(cc1O)C(Cc1cc(I)c(I)c(I)c1)NCC2 (stereo not drawn) | 0.003 | 29 |  | 
COc1cc(C[C@@H]2NCCc3cc(O)c(O)cc32)cc(OC)c1OC | 1 | 1 |  | 
O=C(Nc1ccc(CC2NCCc3cc(O)c(O)cc32)cc1I)c1ccccc1 (stereo not drawn) | 0.03 | 22 |  | 
Oc1cc2c(cc1O)C(Cc1cc(C(F)(F)F)cc(C(F)(F)F)c1)NCC2 (stereo not drawn) | 0.002 | 0.01 |  | 
COc1c(I)cc(CC2NCCc3cc(O)c(O)cc32)cc1I (stereo not drawn) | 3.5 | 21 |  | 

Further lines, results first:

PR [1] | PR [2] | Ki [3] [nM] | Ki (Thromboxane A2 receptor) [nM] | Compound
0.11 | 5.6 |  |  | CC(=O)Nc1ccc(CC2NCCc3cc(O)c(O)cc32)cc1I (stereo not drawn)
0.87 | 28 |  |  | Nc1c(I)cc(CC2NCCc3cc(O)c(O)cc32)cc1I (stereo not drawn)
0.16 | 6.8 | 6.46 | 1000 | Nc1ccc(CC2NCCc3cc(O)c(O)cc32)cc1I (stereo not drawn)
